From patent publication US20230160018A1, “CRYBETAB2 PREDICTS POOR BREAST CANCER OUTCOME AND SENSITIZES TUMORS TO NUCLEOLIN AND CDK INHIBITION” (The Johns Hopkins University, priority 2020, published 2023)

Test system: MCF10AT1-vector tumors
Test: MCF10AT1-vector (CRYβB2-lacking) xenograft tumor growth in NSG mice
Format: in vivo
Conditions: palbociclib 50 mg/kg oral, 5 days/week, 2 weeks; tumors lack CRYβB2 expression

`CC(=O)c1c(C)c2cnc(Nc3ccc(N4CCNCC4)cn3)nc2n(C2CCCC2)c1=O` [palbociclib] was tested, and the tumor size was “no effect”.
